This note sets out measurements from patent publication US9586928B2 (The Scripps Research Institute, priority 2011, dated 2017).

In one assay the target is T1, RORα (Homo sapiens, UniProt P35398).
T1 sequence (P35398 1-523): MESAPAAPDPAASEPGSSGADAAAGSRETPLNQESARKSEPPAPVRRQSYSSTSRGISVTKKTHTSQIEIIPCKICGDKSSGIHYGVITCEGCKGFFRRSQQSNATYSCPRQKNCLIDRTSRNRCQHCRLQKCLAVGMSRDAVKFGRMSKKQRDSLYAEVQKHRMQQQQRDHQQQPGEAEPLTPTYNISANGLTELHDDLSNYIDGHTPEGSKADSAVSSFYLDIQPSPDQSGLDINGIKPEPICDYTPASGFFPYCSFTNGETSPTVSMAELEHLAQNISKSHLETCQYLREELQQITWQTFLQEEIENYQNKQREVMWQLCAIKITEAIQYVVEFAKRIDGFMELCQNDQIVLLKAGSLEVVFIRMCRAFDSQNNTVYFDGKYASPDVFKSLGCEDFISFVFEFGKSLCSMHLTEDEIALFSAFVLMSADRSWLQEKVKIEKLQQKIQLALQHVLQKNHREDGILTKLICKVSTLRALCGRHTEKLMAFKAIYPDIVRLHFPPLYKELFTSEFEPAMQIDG
The experiment in a line: IL-17 promoter luciferase reporter with full-length RORα. In kind it is cell-based. The text has this: Since RORα and RORγ are critical regulators of IL-17 gene expression, we examined whether SR1555 would affect RORα and RORγ-dependent regulation of an IL-17 promoter driven luciferase reporter construct. HEK293 cells were transiently transfected with an IL-17 reporter, either full-length RORα or RORγ, and treated with an increasing concentration of SR1555[8]. In a dose dependent manner, SR1555 suppressed IL-17 promoter driven activity by RORγ but not RORα, further confirming that SR1555 is indeed a RORγ-specific inverse agonist (FIG. 1d). Finally, using EL4 cells, a murine thymoma which endogenously express RORα, RORγ t, and IL-17A, we examined whether SR1555 affected endogenous IL-17 gene expression. EL4 cells were treated with DMSO or SR1555 for 24 hours and analyzed for Il17a gene expression by quantitative real-time PCR.
Cotransfection assays were performed as previously described in HEK293 cells (Gal4 cotransfection assay or IL-17 luciferase reporter)[8]. […]
HEK293 cells were maintained in Dulbecco's modified Eagle's medium (DMEM) supplemented with 10% fetal bovine serum at 37° C. under 5% CO2. […] The luciferase levels were assayed following additional 20 hour incubation by one-step addition of BriteLite Plus (Perkin Elmer) and read using an Envision (Perkin Elmer). […]

The next assay deals with T regulatory cells. The experiment in a line: T regulatory cell differentiation of splenocytes (RTPCR, Foxp3 FACS). In kind it is cell-based, murine. How it is done: Therefore, the environmental cues associated with the concentration of TGF[…] dictates the balance between TH17 and T regulatory cell differentiation. In light of the reciprocal relationship between these two cell types, we assessed whether SR1555 affected the development of T regulatory cells in vitro. Splenocytes were cultured under T regulatory cell polarizing conditions (TGFβ and IL-2) for 3 days. […] To determine whether the gene expression data would correlate with protein expression, we again cultured splenocytes for 5 days under T regulatory cell polarizing conditions in the presence of DMSO or SR1555 and examined the expression of Foxp3 by intracellular cytokine FACS analysis.
Splenocytes were differentiated under the following conditions: iTreg-10 μg/mL anti-IFNγ, 10 μg/mL anti-IL-4, and 2 ng/mL TGFβ (R&D Systems); 20 ug/mL anti-IFNγ, 20 ug/mL anti-IL-4, 1 ng/mL TGFβ, and 10 ng/mL IL-6 (R&D Systems) for TH17 conditions. All cultures were stimulated with 1 μg/mL anti-CD3 (eBiosciences) and 1 μg/mL anti-CD28 (eBiosciences). Four to five days after activation, all cells were restimulated with 5 ng/mL phorbol-12-myristate-13-acetate (PMA) (Sigma) and 500 ng/mL ionomycin (Sigma) for 2 hours with the addition of GolgiStop (BD Bioscience) for an additional 2 hours before intracellular staining. Cells were cultured in RPMI 1640 medium (Invitrogen) with 10% FBS and antibiotics.
RNA extraction and QRT-PCR analysis was performed as previously described.

Regarding `OC(c1ccc(-c2ccc(CN3CCN(Cc4ccncc4)CC3)cc2)c(F)c1)(C(F)(F)F)C(F)(F)F` [SR2211, 1,1,1,3,3,3-hexafluoro-2-(2-fluoro-4′-((4-(pyridin-4-ylmethyl)piperazin-1-yl)methyl)-[1,1′-biphenyl]-4-yl)propan-2-ol], on RORα, the “IL-17 promoter driven activity by RORα” value is listed as “did not alter the transcription driven by the Il17 promoter”. For the same molecule, in the assay on T regulatory cells, the “T regulatory cell proliferation” value was “does not alter T regulatory cell proliferation”.
